Read-outs that look alike come from different tables or passages of the source.
Columns and labels:
Solubility vs. pH = assay type: physicochemical; conditions: 0.15 M aqueous sodium chloride, saline or isotonic, thermodynamic from solid, 0.15M sodium chloride (aqueous), read-out: Solubility, Concentration
Experimental: Suspensions were made up in 0.15M sodium chloride (aqueous) and the pH adjusted to the appropriate value with either diluted hydrochloric acid or sodium hydroxide, to ensure that different salt forms with different solubilities are not produced in solution. The suspension was then allowed to equilibrate for 2 h, and the pH was checked and re-adjusted if required.
The pH of the resultant solution was measured, and the solubility was calculated by HPLC-UV assay of the compound concentration in solution.

[1] = Liquid formulations (oral solutions/suspensions); assay type: physicochemical
Experimental: Values of pH reported were estimated based on pH indicating strips. […] Accordingly, provided in certain embodiments herein were formulations having a pH above about 9, above about 10 or of about 10. In certain embodiments, the formulation was buffered at a pH of about 10. All formulations prepared were sonicated for about 10 minutes.

[2] = system: production of LTB4 after ionophore stimulation in washed human leukocytes; test: LTB4 inhibition in washed human leukocytes; assay type: cell-based; conditions: Leukocyte, mean of 4 tests
[3] = system: LTB4 in Human Whole Blood; test: Human blood LTB4 inhibition assay; assay type: cell-based; conditions: mean of 8 tests
Experimental: A non-limiting example of such a human blood LTB4 inhibition assay is as follows: Blood was drawn from consenting, human volunteers into heparinized tubes and 125 μL aliquots added to wells containing 2.5 μL 50% dimethylsulfoxide (vehicle) or 2.5 μL drug in 50% dimethylsulfoxide. Samples were incubated for 15 minutes at 37° C. 2 μL calcium ionophore […] (from a 50 mM dimethylsulfoxide stock diluted just prior to the assay in Flanks balanced salt solution (Invitrogen)) to 1.25 mM) was added, solutions mixed and incubated for 30 minutes at 37° C. Samples were centrifuged at 1,000 rpm (−200×g) for 10 minutes at 4° C., plasma removed and a 1:100 dilution assayed for LTB4 concentration using ELISA (Assay Designs). Drug concentrations to achieve 50% inhibition (IC50's) of vehicle LTB4 were determined by nonlinear regression (Graphpad Prism) of % inhibition versus log drug is concentration.

CYP3A4 = biological target: T1, CYP3A4 (Homo sapiens, UniProt P08684); test: Extracellular Cytochrome P450 inhibition, 3A4; assay type: in vitro ADME
T1 construct: from tissue
T1 sequence (P08684 whole entry): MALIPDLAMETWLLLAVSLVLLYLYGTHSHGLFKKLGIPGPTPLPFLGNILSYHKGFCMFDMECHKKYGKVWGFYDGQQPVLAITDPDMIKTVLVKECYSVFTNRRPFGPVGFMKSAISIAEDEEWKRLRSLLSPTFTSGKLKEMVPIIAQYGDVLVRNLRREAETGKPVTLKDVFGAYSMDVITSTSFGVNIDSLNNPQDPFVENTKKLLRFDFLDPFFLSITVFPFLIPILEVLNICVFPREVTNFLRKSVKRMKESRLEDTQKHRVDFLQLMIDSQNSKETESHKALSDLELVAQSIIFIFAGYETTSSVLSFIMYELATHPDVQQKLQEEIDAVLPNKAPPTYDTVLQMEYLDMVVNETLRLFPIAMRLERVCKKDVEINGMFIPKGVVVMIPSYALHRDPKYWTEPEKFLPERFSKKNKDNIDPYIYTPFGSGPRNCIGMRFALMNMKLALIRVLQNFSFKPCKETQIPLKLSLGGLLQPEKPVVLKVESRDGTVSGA

CYP 2C9 = biological target: T2, CYP 2C9 (Homo sapiens, UniProt P11712); test: Extracellular Cytochrome P450 inhibition, 2C9; assay type: in vitro ADME; conditions: diclofenac 4′-hydroxylation
T2 construct: from tissue
T2 sequence (P11712 whole entry): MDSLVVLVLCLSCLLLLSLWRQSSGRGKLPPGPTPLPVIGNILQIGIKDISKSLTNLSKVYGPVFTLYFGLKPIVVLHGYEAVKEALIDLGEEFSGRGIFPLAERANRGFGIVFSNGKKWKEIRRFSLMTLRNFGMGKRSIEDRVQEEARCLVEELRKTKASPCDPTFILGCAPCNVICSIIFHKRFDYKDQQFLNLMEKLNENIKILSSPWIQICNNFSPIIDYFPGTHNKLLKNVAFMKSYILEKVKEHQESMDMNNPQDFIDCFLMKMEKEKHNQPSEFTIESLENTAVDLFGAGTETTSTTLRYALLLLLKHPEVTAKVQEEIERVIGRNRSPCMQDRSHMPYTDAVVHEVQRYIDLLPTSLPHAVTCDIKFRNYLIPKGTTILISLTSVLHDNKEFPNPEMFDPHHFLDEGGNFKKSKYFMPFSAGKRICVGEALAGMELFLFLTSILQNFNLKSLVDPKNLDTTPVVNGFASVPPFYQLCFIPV

CYP 2D6 = biological target: T3, CYP 2D6 (Homo sapiens, UniProt P10635); test: Extracellular Cytochrome P450 inhibition, 2D6; assay type: in vitro ADME; conditions: dextromethorphan O-demethylation
T3 construct: microsomes were incubated test substrates, which were known to be metabolized by CYP enzymes, with or without Compound 2; from tissue
T3 sequence (P10635 whole entry): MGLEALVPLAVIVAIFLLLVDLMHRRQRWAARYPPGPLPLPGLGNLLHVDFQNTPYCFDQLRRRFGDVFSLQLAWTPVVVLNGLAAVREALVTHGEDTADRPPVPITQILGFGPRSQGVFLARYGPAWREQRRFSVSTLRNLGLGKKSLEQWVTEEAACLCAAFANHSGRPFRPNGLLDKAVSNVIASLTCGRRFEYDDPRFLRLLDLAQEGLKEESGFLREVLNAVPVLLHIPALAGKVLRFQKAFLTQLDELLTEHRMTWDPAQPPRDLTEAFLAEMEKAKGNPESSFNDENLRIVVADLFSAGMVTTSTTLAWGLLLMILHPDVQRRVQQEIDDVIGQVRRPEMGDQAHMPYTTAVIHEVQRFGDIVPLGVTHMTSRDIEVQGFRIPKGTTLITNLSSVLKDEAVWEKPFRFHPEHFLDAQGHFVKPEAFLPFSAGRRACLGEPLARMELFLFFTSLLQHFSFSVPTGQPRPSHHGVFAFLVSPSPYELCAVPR

CYP 1A2 = CYP 1A2 (Homo sapiens, UniProt P05177); test: Extracellular Cytochrome P450 inhibition, 1A2
CYP 1A2, sequence (P05177 whole entry): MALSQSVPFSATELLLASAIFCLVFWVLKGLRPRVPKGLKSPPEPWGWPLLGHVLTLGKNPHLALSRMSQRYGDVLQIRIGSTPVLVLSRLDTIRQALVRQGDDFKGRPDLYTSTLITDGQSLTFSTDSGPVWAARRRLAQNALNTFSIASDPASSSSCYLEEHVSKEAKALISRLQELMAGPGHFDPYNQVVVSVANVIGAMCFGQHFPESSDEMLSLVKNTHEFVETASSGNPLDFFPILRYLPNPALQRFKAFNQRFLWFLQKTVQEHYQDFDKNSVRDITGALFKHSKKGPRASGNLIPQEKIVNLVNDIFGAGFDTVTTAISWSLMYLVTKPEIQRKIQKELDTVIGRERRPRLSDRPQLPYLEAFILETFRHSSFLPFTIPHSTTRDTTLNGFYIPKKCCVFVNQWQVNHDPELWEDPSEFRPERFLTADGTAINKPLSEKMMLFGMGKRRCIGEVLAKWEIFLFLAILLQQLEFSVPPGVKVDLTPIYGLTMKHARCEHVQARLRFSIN
Experimental: Aliquots of this mixture to (89 μL) were delivered to each well of a 96-well polypropylene plate which contained an aliquot of inhibitor (1 μL). Final solvent concentrations were 1% (v/v) or less. Incubations were commenced with the addition of 10 μL β-NADPH (10 mM stock) to a final volume of 100 μL. […] Samples were centrifuged, and supernatant was transferred for LC-MS analysis.

[4] = Single dose kinetics in beagle dogs; assay type: in vivo; conditions: female, dog, plasma, Fasted
urinary LTE4 production = test: Phase I study, urinary LTE4; assay type: in vivo, human; conditions: for Emax: Homo sapiens
Source text: Study Design: Single center, double-blind, randomized, placebo-controlled, single ascending dose followed by multiple ascending dose study.
Sample Size: (1) Single Dose Phase: eight (8) subjects (6 active, 2 placebo) per dose level; up to 5 dose levels are planned (a total of 40 subjects if all 5 dose levels are completed); and (2) Multiple Dose Phase: eight (8) subjects (6 active, 2 placebo) per dose level; up to 4 dose levels are planned (a total of 32 subjects if all 4 dose levels are completed).
Formulations: Compound 2 was supplied as an oral powder for reconstitution. Placebo solution matched. […] The placebo differed only in the absence of the active.
The following dosing cohorts were used:
Routes of Administration: All doses were administered orally with approximately 100 mL of water rinse. Subjects were fasted for at least 8 hours prior to dosing and for 2 hours after dosing. For BID dosing in the Multiple Dose Phase, when applicable, subjects were fasted for at least 2 hours prior to the second daily dose.
Plasma concentrations of Compound 1 were determined using a validated LC/MS method. Whole blood ionophore-stimulated leukotriene LTB4 and urinary LTE4 production were assayed by ELISA and mass spectrometry, respectively.
Analysis of Samples: Concentrations of Compound 1 was determined in plasma samples collected from subjects. Similarly, concentrations of LTB4 in plasma and urinary LTE4 were determined in blood and urine samples collected.

[5] = mouse, in vivo, po, 250 mg/kg/day
[6] = IV, 4:1 PEG400:Water, 0.67 mg/kg

## CCOc1ccc(-c2ccc(Cn3c(CC(C)(C)C(=O)[O-])c(SC(C)(C)C)c4cc(OCc5ccc(C)cn5)ccc43)cc2)cn1.[Na+] [Compound 2, sodium 3-[3-(tert-butylsulfanyl)-1-[4-(6-ethoxy-pyridin-3-yl)benzyl]-5-(5-methyl-pyridin-2-yl-methoxy)-1H-indol-2-yl]-2,2-dimethylpropionate]
Solubility vs. pH; pH 1.1
  solubility at 2 h: 26 µg/mL
Solubility vs. pH; pH 3.8
  solubility at 2 h: < 0.1 µg/mL
Solubility vs. pH; pH 6.9
  solubility at 2 h: 0.7 µg/mL
Solubility vs. pH; pH 9.0
  solubility at 2 h: 3500 µg/mL
Solubility vs. pH; pH 9.8
  solubility at 2 h: > 10000 µg/mL
Solubility vs. pH; pH 11.2
  solubility at 2 h: > 10000 µg/mL
[1]; 0.010M sodium carbonate buffer, 1% v/v Lutrol and 0.05% splenda, pH 10, ~10 mg/mL
  Results (liquid formulation): Clear solution
[1]; 0.010M sodium carbonate buffer, 2% v/v ethanol and 0.05% splenda, pH 10, 10 mg/mL
  Results (liquid formulation): Clear solution
[1]; 0.010M sodium carbonate buffer, 5% v/v Ethanol and 0.05% splenda, pH 10, ~10 mg/mL
  Results (liquid formulation): Some undissolved
[1]; 0.010M sodium carbonate buffer, 5% v/v Simple syrup, pH 10, 10 mg/mL
  Results (liquid formulation): Some undissolved
[1]; 0.010M sodium carbonate buffer, pH 10, 10 mg/mL
  Results (liquid formulation): Clear solution
[1]; Vehicle 0.5% Methylcellulose, 3.33 mg/mL
  Results (liquid formulation): Suspension
[2]
  IC50: 0.00044 µM
[3]
  IC90: 1.31 µM
CYP3A4; midazolam 1-hydroxylation
  IC50: > 50 µM
CYP3A4; testosterone 6β-hydroxylation
  IC50: > 40 µM
CYP 2C9
  IC50: > 50 µM
CYP 2D6
  IC50: > 50 µM
CYP 1A2
  IC50: > 40 µM
[4]; [6]
  AUC(0-inf): 17600 ng·h/mL
  Cmax: 12000 ng/mL
  Tmax: 1.02 min
  bioavailability: 100%
[4]; IV, 4:1 PEG400:Water, 0.67 mg/kg, read-out: CLp
  clearance: 0.6 mL/min/kg
[4]; IV, 4:1 PEG400:Water, 0.67 mg/kg, read-out: VdSS
  Vd: 0.2 L/kg
[4]; Oral, 0.5% Methylcellulose, 5 mg/kg
  Cmax: 12400 ng/mL
Urinary LTE4 production; 24 h, Multiple dose part, Day 1, 10 mg
  Emax: 54.1%
Urinary LTE4 production; 24 h, Multiple dose part, Day 1, 50 mg
  Emax: 94%
Urinary LTE4 production; 24 h, Multiple dose part, Day 1, 150 mg
  Emax: 98.3%
Urinary LTE4 production; 24 h, Multiple dose part, Day 1, 450 mg
  Emax: 85.7%
Urinary LTE4 production; 24 h, Single dose part, Day 1, 50 mg
  Emax: 86.3%
Urinary LTE4 production; 24 h, Single dose part, Day 1, 150 mg
  Emax: 97.4%
Urinary LTE4 production; 24 h, Single dose part, Day 1, 300 mg
  Emax: 97%
Urinary LTE4 production; 24 h, Single dose part, Day 1, 600 mg
  Emax: 96%
Urinary LTE4 production; 24 h, Single dose part, Day 1, 1000 mg
  Emax: 96.6%
Urinary LTE4 production; 264 h, Multiple dose part, Day 11, 10 mg
  Emax: 88.6%
Urinary LTE4 production; 264 h, Multiple dose part, Day 11, 50 mg
  Emax: 97.7%
Urinary LTE4 production; 264 h, Multiple dose part, Day 11, 150 mg
  Emax: 97.5%
Urinary LTE4 production; 264 h, Multiple dose part, Day 11, 450 mg
  Emax: 98.4%
Urinary LTE4 production; Multiple dose part, Day 1, 10 mg
  Tmax (h), LTE4: 24.00 h
Urinary LTE4 production; Multiple dose part, Day 1, 50 mg
  Tmax (h), LTE4: 16.00 h
Urinary LTE4 production; Multiple dose part, Day 1, 150 mg
  Tmax (h), LTE4: 24.00 h
Urinary LTE4 production; Multiple dose part, Day 1, 450 mg
  Tmax (h), LTE4: 24.00 h
Urinary LTE4 production; Multiple dose part, Day 11, 10 mg
  Tmax (h), LTE4: 12.00 h
Urinary LTE4 production; Multiple dose part, Day 11, 50 mg
  Tmax (h), LTE4: 9.00 h
Urinary LTE4 production; Multiple dose part, Day 11, 150 mg
  Tmax (h), LTE4: 24.00 h
Urinary LTE4 production; Multiple dose part, Day 11, 450 mg
  Tmax (h), LTE4: 12.00 h
Urinary LTE4 production; Single dose part, Day 1, 50 mg
  Tmax (h), LTE4: 16.00 h
Urinary LTE4 production; Single dose part, Day 1, 150 mg
  Tmax (h), LTE4: 16.00 h
Urinary LTE4 production; Single dose part, Day 1, 300 mg
  Tmax (h), LTE4: 24.00 h
Urinary LTE4 production; Single dose part, Day 1, 600 mg
  Tmax (h), LTE4: 24.00 h
Urinary LTE4 production; Single dose part, Day 1, 1000 mg
  Tmax (h), LTE4: 16.00 h
[5]
  necropsy, gross abnormalities: no gross abnormalities

Reference: patent publication US20110160249A1, “5-LIPOXYGENASE-ACTIVATING PROTEIN INHIBITOR” (priority 2008, published 2011)
